16 compounds from patent US20210070748A1, “INHIBITORS OF BRUTONS TYROSINE KINASE” (Pharmacyclics LLC, priority 2015, published 2021) can be followed below.

Holding throughout (type): biochemical
Holding throughout (details): D-compounds panel data; 1 μM ATP

Assay [1] deals with SRC (Homo sapiens, UniProt P12931). In words: Inhibition of a panel of kinases, in vitro HotSpot kinase assay: SRC. On the procedure:
(§1) The degree of inhibition of a panel of kinases is determined using the in vitro HotSpot kinase assay (purified enzymes, ^33P-ATP, an appropriate substrate and 1 μM ATP).

Assay [2] addresses T1, ITK (Homo sapiens, UniProt Q08881).
T1 sequence (Q08881 1-620): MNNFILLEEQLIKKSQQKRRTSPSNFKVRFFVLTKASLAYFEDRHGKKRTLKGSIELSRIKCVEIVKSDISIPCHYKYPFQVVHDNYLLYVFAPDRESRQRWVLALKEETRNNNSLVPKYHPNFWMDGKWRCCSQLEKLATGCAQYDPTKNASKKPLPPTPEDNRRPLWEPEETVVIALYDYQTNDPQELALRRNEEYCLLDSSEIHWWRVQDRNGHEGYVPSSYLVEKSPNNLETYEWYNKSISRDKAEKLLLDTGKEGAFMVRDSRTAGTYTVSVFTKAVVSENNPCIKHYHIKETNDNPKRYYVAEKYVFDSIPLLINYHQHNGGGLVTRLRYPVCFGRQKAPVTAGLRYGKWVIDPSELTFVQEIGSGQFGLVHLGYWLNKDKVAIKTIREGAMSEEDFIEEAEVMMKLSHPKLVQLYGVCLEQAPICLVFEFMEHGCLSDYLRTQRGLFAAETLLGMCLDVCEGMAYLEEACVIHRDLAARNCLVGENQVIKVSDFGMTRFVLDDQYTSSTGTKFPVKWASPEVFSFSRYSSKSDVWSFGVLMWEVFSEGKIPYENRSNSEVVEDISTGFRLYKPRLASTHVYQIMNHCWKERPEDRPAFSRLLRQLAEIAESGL
In words: Inhibition of a panel of kinases, in vitro HotSpot kinase assay: ITK. How it is done: as §1

In assay [3] the target is T2, TEC (Homo sapiens, UniProt P42680).
T2 sequence (P42680 1-631): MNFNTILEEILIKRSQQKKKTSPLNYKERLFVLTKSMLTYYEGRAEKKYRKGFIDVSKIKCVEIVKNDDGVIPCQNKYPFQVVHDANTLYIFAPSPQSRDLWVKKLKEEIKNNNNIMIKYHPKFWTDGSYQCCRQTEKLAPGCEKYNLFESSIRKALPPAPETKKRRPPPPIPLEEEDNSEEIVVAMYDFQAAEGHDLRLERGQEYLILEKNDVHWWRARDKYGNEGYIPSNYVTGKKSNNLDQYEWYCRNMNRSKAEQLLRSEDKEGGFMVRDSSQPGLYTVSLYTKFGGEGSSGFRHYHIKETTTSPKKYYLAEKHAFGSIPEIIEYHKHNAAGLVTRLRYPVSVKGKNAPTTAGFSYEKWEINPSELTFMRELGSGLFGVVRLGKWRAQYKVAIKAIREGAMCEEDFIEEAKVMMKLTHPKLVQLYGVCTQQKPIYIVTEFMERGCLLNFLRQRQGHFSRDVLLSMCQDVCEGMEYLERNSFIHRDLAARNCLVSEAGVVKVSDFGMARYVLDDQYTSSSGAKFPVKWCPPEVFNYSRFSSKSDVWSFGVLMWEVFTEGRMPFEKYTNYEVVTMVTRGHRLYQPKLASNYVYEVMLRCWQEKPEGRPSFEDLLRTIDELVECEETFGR
In words: Inhibition of a panel of kinases, in vitro HotSpot kinase assay: TEC. On the procedure: as §1

Chain of SRC (P12931 whole entry): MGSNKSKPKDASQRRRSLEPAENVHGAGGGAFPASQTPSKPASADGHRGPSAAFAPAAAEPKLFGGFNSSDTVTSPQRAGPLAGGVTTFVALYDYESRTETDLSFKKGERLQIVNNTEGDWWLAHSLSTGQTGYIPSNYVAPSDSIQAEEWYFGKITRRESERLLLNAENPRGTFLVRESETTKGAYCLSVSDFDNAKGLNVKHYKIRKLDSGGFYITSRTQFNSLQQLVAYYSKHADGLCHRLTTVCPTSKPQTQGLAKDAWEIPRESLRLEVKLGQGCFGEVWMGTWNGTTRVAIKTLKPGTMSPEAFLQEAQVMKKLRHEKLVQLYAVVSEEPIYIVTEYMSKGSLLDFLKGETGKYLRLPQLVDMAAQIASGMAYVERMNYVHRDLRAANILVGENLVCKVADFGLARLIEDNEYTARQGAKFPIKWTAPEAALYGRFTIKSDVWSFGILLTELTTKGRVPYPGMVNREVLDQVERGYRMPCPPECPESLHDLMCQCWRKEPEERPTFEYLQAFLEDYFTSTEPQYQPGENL

Regarding `C[C@@H]1[C@H](NC(=O)c2ccc(C3CC3)cc2)CCCN1c1cnc(C(N)=O)c(Nc2ccc(N3CCC(C(=O)N(C)C)CC3)cc2)n1` [Example D-320, 5-[(2R,3R)-3-(4-cyclopropylbenzamido)-2-methylpiperidin-1-yl]-3-({4-[4-(dimethylcarbamoyl)piperidin-1-yl]phenyl}amino)pyrazine-2-carboxamide], the values for the IC50 in assay [1], in assay [2] and in assay [3] were 0.01 to 0.1 µM, 0.01 to 0.1 µM and ≤ 0.01 µM, respectively.

Regarding `CN(C)C(=O)N[C@H]1CCCN(c2cnc(C(N)=O)c(Nc3ccc(C4(C)CCN(C5CCCC5)CC4)cc3)n2)[C@@H]1CO` [Example D-61, 3-{[4-(1-cyclopentyl-4-methylpiperidin-4-yl)phenyl]amino}-5-[(2S,3S)-3-[(dimethylcarbamoyl)amino]-2-(hydroxymethyl)piperidin-1-yl]pyrazine-2-carboxamide], the IC50 (as a rule, the concentration needed to halve the response being measured) in assay [1] was 1 to 10 µM; in assay [2] it was 1 to 10 µM; in assay [3], > 10 µM.

`CN(C)C(=O)N1CC[C@@H]2[C@H]1CCCN2c1cnc(C(N)=O)c(Nc2cnn(C)c2)n1` (racemic) [Example D-50, (racemic)-cis-5-[1-(dimethylcarbamoyl)-octahydro-1H-pyrrolo[3,2-b]pyridin-4-yl]-3-[(1-methyl-1H-pyrazol-4-yl)amino]pyrazine-2-carboxamide]: the results for the concentration for half-maximal inhibition (IC50) in assay [1], in assay [2] and in assay [3] were 0.1 to 1 µM, 1 to 10 µM and 0.1 to 1 µM, respectively.

Regarding `C[C@@H]1C[C@@H](NC(=O)c2ccc(C3CC3)cc2)CN(c2cnc(C(N)=O)c(Nc3cnn(C)c3)n2)C1` [Example D-31, 5-[(3R,5R)-3-(4-cyclopropylbenzamido)-5-methylpiperidin-1-yl]-3-[(1-methyl-1H-pyrazol-4-yl)amino]pyrazine-2-carboxamide], the results for the half-maximal inhibitory concentration (IC50) in assay [1], in assay [2] and in assay [3] were 0.1 to 1 µM, 1 to 10 µM and 0.1 to 1 µM, respectively.

For `Cc1cc(Nc2nc(N3C[C@H](NC(=O)N(C)C)CC[C@H]3C)cnc2C(N)=O)sn1` [Example D-77, 5-[(2R,5R)-5-[(dimethylcarbamoyl)amino]-2-methylpiperidin-1-yl]-3-[(3-methyl-1,2-thiazol-5-yl)amino]pyrazine-2-carboxamide], the concentration for half-maximal inhibition (IC50) in assay [1] was 1 to 10 µM; in assay [2] it was > 10 µM; in assay [3], 1 to 10 µM.

In the case of `Cn1cc(Nc2nc(N3CCC[C@H]4[C@@H]3CCCN4C(=O)c3ccc(C4CC4)cc3)cnc2C(N)=O)cn1` [Example D-47, 5-[(4aS,8aS)-5-(4-cyclopropylbenzoyl)-decahydro-1,5-naphthyridin-1-yl]-3-[(1-methyl-1H-pyrazol-4-yl)amino]pyrazine-2-carboxamide], the figures for the IC50 in assay [1], in assay [2] and in assay [3] were 1 to 10 µM, > 10 µM and 1 to 10 µM, respectively.

Take `C[C@@H]1[C@H](NC(=O)c2ccc(C(F)(F)F)cn2)CCCN1c1cnc(C(N)=O)c(Nc2cnn(C)c2)n1` [Example D-87, 3-[(1-methyl-1H-pyrazol-4-yl)amino]-5-[(2R,3R)-2-methyl-3-[5-(trifluoromethyl)pyridine-2-amido]piperidin-1-yl]pyrazine-2-carboxamide]: the IC50 in assay [1] was 0.01 to 0.1 µM; in assay [2] it was 0.1 to 1 µM; in assay [3], 0.01 to 0.1 µM.

For `C[C@@H]1[C@H](NC(=O)c2ccc(C3CC3)cc2)CCCN1c1cnc(C(N)=O)c(Nc2ccc(N3CCN(C)CC3)cc2)n1` [Example D-81], the results for the 50% inhibitory concentration (IC50) in assay [1], in assay [2] and in assay [3] were 0.01 to 0.1 µM, 0.1 to 1 µM and 0.01 to 0.1 µM, respectively.

For `Cn1cc(Nc2nc(N3CCC[C@H]4[C@@H]3CCN4C(=O)c3ccc(C4CC4)cc3)cnc2C(N)=O)cn1` [Example D-45, 5-[(3aS,7aS)-1-(4-cyclopropylbenzoyl)-octahydro-1H-pyrrolo[3,2-b]pyridin-4-yl]-3-[(1-methyl-1H-pyrazol-4-yl)amino]pyrazine-2-carboxamide], the IC50 in assay [1] fell in the range of 1 to 10 µM; in assay [2], 1 to 10 µM; in assay [3], 0.1 to 1 µM.

Take `C[C@@H]1[C@H](NC(=O)N(C)C)CCCN1c1cnc(C(N)=O)c(Nc2ccc(OC3CCN(C)CC3)cc2)n1` [Example D-33, 5-[(2R,3R)-3-[(dimethylcarbamoyl)amino]-2-methylpiperidin-1-yl]-3-({4-[(1-methylpiperidin-4-yl)oxy]phenyl}amino)pyrazine-2-carboxamide]: the IC50 in assay [1], in assay [2] and in assay [3] was 0.01 to 0.1 µM throughout.

For the compound `CN(C)C(=O)N[C@H]1CCCN(c2cnc(C(N)=O)c(Nc3ccc4ncccc4c3)n2)[C@H]1CO` (racemic) [Example D-65, cis 5-[3-[(dimethylcarbamoyl)amino]-2-(hydroxymethyl)piperidin-1-yl]-3-[(quinolin-6-yl)amino]pyrazine-2-carboxamide], the 50% inhibitory concentration (IC50) in assay [1] is 1 to 10 µM; in assay [2] it was > 10 µM; in assay [3], 1 to 10 µM.

Consider `Cc1cc(Nc2nc(N3CCC[C@H](NC(=O)N(C)C)[C@@H]3CO)cnc2C(N)=O)sn1` [Example D-68, 5-[(2R,3S)-3-[(dimethylcarbamoyl)amino]-2-(hydroxymethyl)piperidin-1-yl]-3-[(3-methyl-1,2-thiazol-5-yl)amino]pyrazine-2-carboxamide], for which the IC50 in assay [1] is 1 to 10 µM; in assay [2], > 10 µM; in assay [3], > 10 µM.

With `C[C@@H]1[C@H](NC(=O)N(C)C)CCCN1c1cnc(C(N)=O)c(Nc2ccc(N3CCN(C)CC3)cc2F)n1` [Example D-52, 5-[(2R,3R)-3-[(dimethylcarbamoyl)amino]-2-methylpiperidin-1-yl]-3-{[2-fluoro-4-(4-methylpiperazin-1-yl)phenyl]amino}pyrazine-2-carboxamide], the IC50 in assay [1], in assay [2] and in assay [3] was 0.1 to 1 µM in each case.

For the compound `C[C@@H]1[C@H](NC(=O)c2ccc(C3CC3)nc2)CCCN1c1cnc(C(N)=O)c(Nc2ccc(OC3CCC(F)(F)CC3)cc2)n1` [Example D-48, 5-[(2R,3R)-3-(6-cyclopropylpyridine-3-amido)-2-methylpiperidin-1-yl]-3-({4-[(4,4-difluorocyclohexyl)oxy]phenyl}amino)pyrazine-2-carboxamide], the IC50 in assay [1] is 0.1 to 1 µM; in assay [2], > 10 µM; in assay [3], 0.01 to 0.1 µM.

Regarding `C[C@@H]1[C@H](NC(=O)c2cnn(C(C)(C)C)c2)CCCN1c1cnc(C(N)=O)c(Nc2cnn(C)c2)n1` [Example D-57, 5-[(2R,3R)-3-(1-tert-butyl-1H-pyrazole-4-amido)-2-methylpiperidin-1-yl]-3-[(1-methyl-1H-pyrazol-4-yl)amino]pyrazine-2-carboxamide], the results for the IC50 in assay [1], in assay [2] and in assay [3] were 0.01 to 0.1 µM, 0.1 to 1 µM and 0.01 to 0.1 µM, respectively.

In the case of `Cn1cc(Nc2nc(N3C[C@H](CO)C[C@H](NC(=O)c4ccc(C5CC5)cc4)C3)cnc2C(N)=O)cn1` (racemic) [Example D-43, (racemic)-cis-5-[3-(4-cyclopropylbenzamido)-5-(hydroxymethyl)piperidin-1-yl]-3-[(1-methyl-1H-pyrazol-4-yl)amino]pyrazine-2-carboxamide], the half-maximal inhibitory concentration (IC50) was in the range of 0.1 to 1 µM in assay [1], 0.1 to 1 µM in assay [2] and 0.01 to 0.1 µM in assay [3].
